Measured values published in patent US20070049593A1 (priority 2004, published 2007).
Where a name gives a salt, the structure may show the parent alone.

These compounds were tested against T1, HCV polymerase (Hepatitis C virus genotype 1b, UniProt P26663) (assay: biochemical). Settings: not given.
T1 construct: a region encoding NS5B (J Virol 1991 March, 65(3), 1105-13, 544 amino acids after deletion of 47 amino acids on the C-terminal); 6xHis (C); made in house; host or cells: Escherichia coli
T1 sequence (P26663 2420-2963): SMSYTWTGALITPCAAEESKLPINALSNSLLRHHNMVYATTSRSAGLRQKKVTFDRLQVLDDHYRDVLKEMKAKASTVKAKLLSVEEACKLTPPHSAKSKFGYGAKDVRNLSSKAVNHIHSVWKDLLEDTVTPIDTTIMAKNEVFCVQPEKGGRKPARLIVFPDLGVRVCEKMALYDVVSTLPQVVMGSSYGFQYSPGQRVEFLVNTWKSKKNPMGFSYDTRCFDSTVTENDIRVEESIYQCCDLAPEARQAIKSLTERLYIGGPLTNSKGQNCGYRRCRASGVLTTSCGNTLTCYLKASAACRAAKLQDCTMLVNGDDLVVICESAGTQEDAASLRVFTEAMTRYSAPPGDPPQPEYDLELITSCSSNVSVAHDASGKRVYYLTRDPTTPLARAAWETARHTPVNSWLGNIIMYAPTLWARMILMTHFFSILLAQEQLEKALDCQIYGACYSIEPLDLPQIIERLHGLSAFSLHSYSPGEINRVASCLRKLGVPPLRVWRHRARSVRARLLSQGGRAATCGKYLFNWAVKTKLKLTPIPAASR
Design: species or system HCV BK strain
Method in brief: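 Recombinant HCV BK-strain NS5B (C-terminal 47 aa deleted, His6-tagged, E. coli), 0.5 μg/ml, run with 5 μg/ml in vitro-transcribed RNA template (polyU/3′X), ATP/GTP/CTP 50 μM, UTP 2 μM plus [3H]UTP, pH 7.5, 25° C, 90 min. TCA-precipitated RNA counted by scintillation; IC50 from activity with vs without compound.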

SMILES | IC50 [nM]
COC1CCCN(CCN2CCn3c(c(C4CCCCC4)c4ccc(C(=O)O)cc43)-c3ccc(Cl)cc32)C1 (centres unmarked) [Example 1-265, 3-chloro-13-cyclohexyl-5-[2-(3-methoxypiperidin-1-yl)ethyl]-6,7-dihydro-5H-benzo[5,6][1,4]diazepino[7,1-a]indole-10-carboxylic acid dihydrochloride] | < 100
COC1CCCN(CCN2CCn3c(c(C4CCCCC4)c4ccc(C(=O)O)cc43)-c3ccc(C)cc32)C1 (centres unmarked) [Example 1-266, 13-cyclohexyl-5-[2-(3-methoxypiperidin-1-yl)ethyl]-3-methyl-6,7-dihydro-5H-benzo[5,6][1,4]diazepino[7,1-a]indole-10-carboxylic acid dihydrochloride] | < 100
CCCC1CCCN(CCN2CCn3c(c(C4CCCCC4)c4ccc(C(=O)O)cc43)-c3ccc(Cl)cc32)C1 (centres unmarked) [Example 1-267, 3-chloro-13-cyclohexyl-5-[2-(3-propylpiperidin-1-yl)ethyl]-6,7-dihydro-5H-benzo[5,6][1,4]diazepino[7,1-a]indole-10-carboxylic acid dihydrochloride] | < 100
O=C(O)c1ccc2c(C3CCCCC3)c3n(c2c1)CCN(CCCN1CCCC1)c1cc(Cl)ccc1-3 [Example 1-269, 3-chloro-13-cyclohexyl-5-[3-(pyrrolidin-1-yl)propyl]-6,7-dihydro-5H-benzo[5,6][1,4]diazepino[7,1-a]indole-10-carboxylic acid dihydrochloride] | < 100
O=C(O)c1ccc2c(C3CCCCC3)c3n(c2c1)CCN(CCCN1CCCOCC1)c1cc(Cl)ccc1-3 [Example 1-270, 3-chloro-13-cyclohexyl-5-[3-(1,4-oxazepan-4-yl)propyl]-6,7-dihydro-5H-benzo[5,6][1,4]diazepino[7,1-a]indole-10-carboxylic acid dihydrochloride] | < 100
COCC1CCCCN1CCN1CCn2c(c(C3CCCCC3)c3ccc(C(=O)O)cc32)-c2ccccc21 (centres unmarked) [Example 1-271, 13-cyclohexyl-5-[2-(2-methoxymethylpiperidin-1-yl)ethyl]-6,7-dihydro-5H-benzo[5,6][1,4]diazepino[7,1-a]indole-10-carboxylic acid dihydrochloride] | < 100
CCC1CCCN(CCN2CCn3c(c(C4CCCCC4)c4ccc(C(=O)O)cc43)-c3ccc(C)cc32)C1 (centres unmarked) [Example 1-272, 13-cyclohexyl-5-[2-(3-ethylpiperidin-1-yl)ethyl]-3-methyl-6,7-dihydro-5H-benzo[5,6][1,4]diazepino[7,1-a]indole-10-carboxylic acid dihydrochloride] | < 100
CCN1CCCC(CCN2CCn3c(c(C4CCCCC4)c4ccc(C(=O)O)cc43)-c3ccc(C)cc32)C1 (centres unmarked) [Example 1-273, 13-cyclohexyl-5-[2-(1-ethylpiperidin-3-yl)ethyl]-3-methyl-6,7-dihydro-5H-benzo[5,6][1,4]diazepino[7,1-a]indole-10-carboxylic acid dihydrochloride] | < 100
Cc1ccc2c(c1)N(CCC1CCCN(C)C1)CCn1c-2c(C2CCCCC2)c2ccc(C(=O)O)cc21 (centres unmarked) [Example 1-274, 13-cyclohexyl-3-methyl-5-[2-(1-methylpiperidin-3-yl)ethyl]-6,7-dihydro-5H-benzo[5,6][1,4]diazepino[7,1-a]indole-10-carboxylic acid dihydrochloride] | < 100
Cc1ccc2c(c1)N(CCC1CCCN(C(C)C)C1)CCn1c-2c(C2CCCCC2)c2ccc(C(=O)O)cc21 (centres unmarked) [Example 1-275, 13-cyclohexyl-5-[2-(1-isopropylpiperidin-3-yl)ethyl]-3-methyl-6,7-dihydro-5H-benzo[5,6][1,4]diazepino[7,1-a]indole-10-carboxylic acid dihydrochloride] | < 100
CCOc1ccc2c(c1)N(CCN1CCCCC1)CCn1c-2c(C2CCCCC2)c2ccc(C(=O)O)cc21 [Example 1-276, 13-cyclohexyl-3-ethoxy-5-[2-(piperidin-1-yl)ethyl]-6,7-dihydro-5H-benzo[5,6][1,4]diazepino[7,1-a]indole-10-carboxylic acid dihydrochloride] | < 100
O=C(O)c1ccc2c(C3CCCCC3)c3n(c2c1)CCN(CCN1CCCCCCC1)c1cc(Cl)ccc1-3 [Example 1-277, 5-[2-(azocan-1-yl)ethyl]-3-chloro-13-cyclohexyl-6,7-dihydro-5H-benzo[5,6][1,4]diazepino[7,1-a]indole-10-carboxylic acid dihydrochloride] | < 100
Cc1ccc2c(c1)N(CCN1CCCCCCC1)CCn1c-2c(C2CCCCC2)c2ccc(C(=O)O)cc21 [Example 1-278, 5-[2-(azocan-1-yl)ethyl]-13-cyclohexyl-3-methyl-6,7-dihydro-5H-benzo[5,6][1,4]diazepino[7,1-a]indole-10-carboxylic acid dihydrochloride] | < 100
CC(=O)N1CCC(N(C)CCN2CCn3c(c(C4CCCCC4)c4ccc(C(=O)O)cc43)-c3ccccc32)CC1 [Example 1-279, 5-{2-[N-(1-acetylpiperidin-4-yl)-N-methylamino]ethyl}-13-cyclohexyl-6,7-dihydro-5H-benzo[5,6][1,4]diazepino[7,1-a]indole-10-carboxylic acid monohydrochloride] | < 100
CN(CCN1CCn2c(c(C3CCCCC3)c3ccc(C(=O)O)cc32)-c2ccccc21)C1CCN(S(C)(=O)=O)CC1 [Example 1-280, 13-cyclohexyl-5-{2-[N-(1-methanesulfonylpiperidin-4-yl)-N-methylamino]ethyl}-6,7-dihydro-5H-benzo[5,6][1,4]diazepino[7,1-a]indole-10-carboxylic acid] | < 100
COC(=O)N1CCC(N(C)CCN2CCn3c(c(C4CCCCC4)c4ccc(C(=O)O)cc43)-c3ccccc32)CC1 [Example 1-281, 13-cyclohexyl-5-{2-[N-(1-methoxycarbonylpiperidin-4-yl)-N-methylamino]ethyl}-6,7-dihydro-5H-benzo[5,6][1,4]diazepino[7,1-a]indole-10-carboxylic acid monohydrochloride] | < 100
CN1CCC(N(C)CCN2CCn3c(c(C4CCCCC4)c4ccc(C(=O)O)cc43)-c3ccccc32)CC1 [Example 1-282, 13-cyclohexyl-5-{2-[N-methyl-N-(1-methylpiperidin-4-yl)amino]ethyl}-6,7-dihydro-5H-benzo[5,6][1,4]diazepino[7,1-a]indole-10-carboxylic acid dihydrochloride] | < 100
CN(CCN1CCn2c(c(C3CCCCC3)c3ccc(C(=O)O)cc32)-c2ccccc21)C1CCOCC1 [Example 1-283, 13-cyclohexyl-5-{2-[N-methyl-N-(tetrahydropyran-4-yl)amino]ethyl}-6,7-dihydro-5H-benzo[5,6][1,4]diazepino[7,1-a]indole-10-carboxylic acid] | < 100
CN1CCC(N(C)CCN2CCn3c(c(C4CCCCC4)c4ccc(C(=O)O)cc43)-c3ccccc32)C1 (centres unmarked) [Example 1-284, 13-cyclohexyl-5-{2-[N-methyl-N-(1-methylpyrrolidin-3-yl)amino]ethyl}-6,7-dihydro-5H-benzo[5,6][1,4]diazepino[7,1-a]indole-10-carboxylic acid dihydrochloride] | < 100
CN(CCN1CCn2c(c(C3CCCCC3)c3ccc(C(=O)O)cc32)-c2ccccc21)C1CCNC1 (centres unmarked) [Example 1-285, 13-cyclohexyl-5-{2-[N-methyl-N-(pyrrolidin-3-yl)amino]ethyl}-6,7-dihydro-5H-benzo[5,6][1,4]diazepino[7,1-a]indole-10-carboxylic acid dihydrochloride] | < 100
CCN1CCCN(CCN2CCn3c(c(C4CCCCC4)c4ccc(C(=O)O)cc43)-c3ccccc32)CC1 [Example 1-286, 13-cyclohexyl-5-[2-(4-ethyl-1,4-diazepan-1-yl)ethyl]-6,7-dihydro-5H-benzo[5,6][1,4]diazepino[7,1-a]indole-10-carboxylic acid trihydrochloride] | < 100
Cc1ccc2c(c1)N(CCC1CCCCN1C)CCn1c-2c(C2CCCCC2)c2ccc(C(=O)O)cc21 (centres unmarked) [Example 1-287, 13-cyclohexyl-3-methyl-5-[2-(1-methylpiperidin-2-yl)ethyl]-6,7-dihydro-5H-benzo[5,6][1,4]diazepino[7,1-a]indole-10-carboxylic acid dihydrochloride] | < 100
CCN1CCCCC1CCN1CCn2c(c(C3CCCCC3)c3ccc(C(=O)O)cc32)-c2ccc(C)cc21 (centres unmarked) [Example 1-288, 13-cyclohexyl-5-[2-(1-ethylpiperidin-2-yl)ethyl]-3-methyl-6,7-dihydro-5H-benzo[5,6][1,4]diazepino[7,1-a]indole-10-carboxylic acid dihydrochloride] | < 100
CSc1ccc2c(c1)N(CCN1CCCCCC1)CCn1c-2c(C2CCCCC2)c2ccc(C(=O)O)cc21 [Example 1-289, 5-[2-(azepan-1-yl)ethyl]-13-cyclohexyl-3-methylsulfanyl-6,7-dihydro-5H-benzo[5,6][1,4]diazepino[7,1-a]indole-10-carboxylic acid dihydrochloride] | < 100
CCC1CN(CCN2CCn3c(c(C4CCCCC4)c4ccc(C(=O)O)cc43)-c3ccc(Cl)cc32)CCO1 (centres unmarked) [Example 1-290, 3-chloro-13-cyclohexyl-5-[2-(2-ethylmorpholin-4-yl)ethyl]-6,7-dihydro-5H-benzo[5,6][1,4]diazepino[7,1-a]indole-10-carboxylic acid dihydrochloride] | < 100

Same assay, conditions: 25° C., 90 min; [5,6-3H]UTP incorporation into RNA; read-out: HCV polymerase inhibitory activity IC50

SMILES | IC50 [nM]
CCCC1CCCN(CCN2CCn3c(c(C4CCCCC4)c4ccc(C(=O)O)cc43)-c3ccc(C)cc32)C1 (centres unmarked) [Example 1-268, 13-cyclohexyl-3-methyl-5-[2-(3-propylpiperidin-1-yl)ethyl]-6,7-dihydro-5H-benzo[5,6][1,4]diazepino[7,1-a]indole-10-carboxylic acid dihydrochloride] | < 100
